Experimental data from US20230322715A1, “BROAD SPECTRUM ANTI-CANCER COMPOUNDS” (The Regents of the University of California, priority 2019, published 2023).
Like-named read-outs stand apart in the source and are kept apart here. Values belong to the molecule of their own block, whether it stands above or below them.

What was measured:
[1] = biological target: FTO (Homo sapiens (Human), UniProt Q9C0B1); test: Fluorescence enzymatic inhibition assay (m6A7-Broccoli RNA / DFHBI-1T) against FTO; type: biochemical
Chain of FTO (Q9C0B1 whole entry): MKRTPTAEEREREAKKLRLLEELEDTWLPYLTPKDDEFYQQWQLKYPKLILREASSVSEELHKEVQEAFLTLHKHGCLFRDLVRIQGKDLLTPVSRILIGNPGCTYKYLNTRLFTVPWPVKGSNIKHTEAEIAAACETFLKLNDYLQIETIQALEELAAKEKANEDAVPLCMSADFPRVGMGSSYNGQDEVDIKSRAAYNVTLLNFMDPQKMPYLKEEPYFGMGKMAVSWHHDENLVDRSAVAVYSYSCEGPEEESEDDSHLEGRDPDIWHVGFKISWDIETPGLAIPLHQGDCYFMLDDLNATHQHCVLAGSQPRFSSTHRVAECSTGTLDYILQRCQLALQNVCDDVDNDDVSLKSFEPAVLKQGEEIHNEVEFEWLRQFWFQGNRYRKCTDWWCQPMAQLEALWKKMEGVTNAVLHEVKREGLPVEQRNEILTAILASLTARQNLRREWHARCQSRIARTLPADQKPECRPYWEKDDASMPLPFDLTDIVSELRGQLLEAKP
Method: In order to determine their efficacy as FTO inhibitors, the compounds were screened by a fluorescence enzymatic inhibition assay developed previously by the Jaffrey lab.^44 Briefly, a nonfluorescent methylated RNA substrate termed “m6A7-Broccoli” is incubated with FTO in the presence of 2-oxoglutarate (300 μM), (NH4)2Fe(SO4)2·6H2O (300 μM), and L-ascorbate (2 mM) for 2 hours at room temperature in reaction buffer (50 mM NaHEPES, pH 6).
(§1) Inhibitors were added in concentrations ranging from 0.008-40 μM; all inhibitors were dissolved in DMSO and added to a final concentration of 0.2% DMSO. […] After incubation at room temperature for 2 hours, the plates were left at 4° C. overnight (16 hours) to allow DFHBI-1T to bind to A7-Broccoli RNA. […] Sigmoidal dose-response curves were fitted in GraphPad Prism 6. All assays were performed in triplicate, with additional repetitions added as necessary.

[2] = biological target: ALKBH5 (Homo sapiens (Human), UniProt Q6P6C2); test: Fluorescence enzymatic inhibition assay (m6A7-Broccoli RNA / DFHBI-1T) against ALKBH5; type: biochemical
Chain of ALKBH5 (Q6P6C2 whole entry): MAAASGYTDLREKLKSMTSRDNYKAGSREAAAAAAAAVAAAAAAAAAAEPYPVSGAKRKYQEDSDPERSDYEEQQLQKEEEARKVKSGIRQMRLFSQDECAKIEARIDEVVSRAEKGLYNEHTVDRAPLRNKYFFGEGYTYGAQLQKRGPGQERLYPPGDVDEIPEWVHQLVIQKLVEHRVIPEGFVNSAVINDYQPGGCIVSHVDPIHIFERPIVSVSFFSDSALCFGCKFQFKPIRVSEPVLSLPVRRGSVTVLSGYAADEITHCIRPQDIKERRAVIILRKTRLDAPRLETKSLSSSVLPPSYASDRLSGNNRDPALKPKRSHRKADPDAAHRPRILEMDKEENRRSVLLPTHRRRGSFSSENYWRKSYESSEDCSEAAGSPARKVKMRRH
Method: as §1

[3] = elogD / log D determination
[4] = biological target: YTHDF2 (Homo sapiens (Human), UniProt Q9Y5A9); test: In vitro FRET assay for binding affinities of YTH inhibitors, YTHDF2
Chain of YTHDF2 (Q9Y5A9 whole entry): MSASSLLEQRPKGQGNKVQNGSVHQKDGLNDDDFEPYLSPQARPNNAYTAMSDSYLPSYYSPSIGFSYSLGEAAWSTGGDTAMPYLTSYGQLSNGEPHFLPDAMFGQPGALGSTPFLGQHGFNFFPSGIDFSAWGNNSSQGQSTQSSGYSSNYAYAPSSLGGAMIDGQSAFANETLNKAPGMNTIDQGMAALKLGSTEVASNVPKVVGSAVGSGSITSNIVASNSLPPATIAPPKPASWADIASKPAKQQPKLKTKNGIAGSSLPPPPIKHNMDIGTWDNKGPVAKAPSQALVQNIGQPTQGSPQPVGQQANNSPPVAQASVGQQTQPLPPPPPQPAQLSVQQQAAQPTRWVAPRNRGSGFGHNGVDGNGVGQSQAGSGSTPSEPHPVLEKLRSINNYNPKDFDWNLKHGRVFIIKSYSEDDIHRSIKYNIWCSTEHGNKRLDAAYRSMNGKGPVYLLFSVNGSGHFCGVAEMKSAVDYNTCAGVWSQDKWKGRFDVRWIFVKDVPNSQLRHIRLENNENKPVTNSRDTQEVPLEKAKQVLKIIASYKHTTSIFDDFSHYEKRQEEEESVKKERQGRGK
Text: FIG. 8-2 depicts possible design and synthesis of compound libraries. In Vitro FRET assay development could yield a high throughput FRET assay to determine binding affinities for potential YHT inhibitors against YTHDF1, YTHDF2, YTHDF3, or other similar proteins.

[5] = Table 800 compounds, read-out: FTO IC50
[6] = Table 800 compounds, read-out: ALKBH5 IC50
[7] = m6A7-Broccoli fluorescence assay, 0.250 μM ALKBH5, read-out: Enzymatic IC50 ALKBH5
[8] = m6A7-Broccoli fluorescence assay, 0.250 μM FTO, inhibitor up to 40 μM, triplicate, read-out: Enzymatic IC50 FTO

SMILES: O=S(=O)(Nc1ccc(F)c(Cl)c1)c1ccc(OC(F)(F)F)cc1 [TR-ALKBH5-38]
IC50 [1, 5]: 27.6 µM | IC50 [2, 6]: 1.9 µM | elogD ([3]; Table 800 compounds): 2.58

SMILES: O=C(C1CC1)N1CCN(S(=O)(=O)c2ccc(OC(F)(F)F)cc2)CC1 [TR-ALKBH5-41]
chromatographic logD [3]: 0.79

SMILES: Cc1ccc2[nH]cc(CNCC3(N4CCCC4)COC3)c2c1 [TR-FTO-09]
IC50 [2, 7]: > 40 µM

SMILES: Fc1ccc2[nH]cc(CNCC3(N4CCCC4)COC3)c2c1 [TR-FTO-11]
IC50 [2, 7]: 6.6 µM

SMILES: Fc1ccc2c(CNCC3(N4CCCC4)COC3)c[nH]c2c1 [TR-FTO-12]
IC50 [2, 7]: 2.3 µM

SMILES: c1ccc2c(CNCC3(N4CCCC4)COC3)c[nH]c2c1 [TR-FTO-13]
IC50 [1, 8]: 1 µM | IC50 [2, 7]: > 40 µM

SMILES: COc1cccc2c(CNCC3(N4CCCC4)COC3)c[nH]c12 [TR-FTO-14]
IC50 [2, 7]: > 40 µM | elogD [3]: 0.40

SMILES: Fc1cccc2c(CNCC3(N4CCCC4)COC3)c[nH]c12 [TR-FTO-16]
IC50 [1, 8]: 2.2 µM | IC50 [2, 7]: 0.87 µM

SMILES: Fc1cccc2[nH]cc(CNCC3(N4CCCC4)COC3)c12 [TR-FTO-17]
IC50 [1, 8]: 1.3 µM | IC50 [2, 7]: 2.5 µM

SMILES: c1cc2c(cc1CNCC1(N3CCCC3)COC1)OCCO2 [TR-FTO-27]
IC50 [2, 7]: 5.9 µM | elogD [3]: 0.55

SMILES: Cc1ccc(CNCC2(N3CCCC3)COC2)cc1C [TR-FTO-30]
IC50 [2, 7]: 9.9 µM | elogD [3]: 0.87

SMILES: c1cc2cc(CNCC3(N4CCCC4)COC3)ccc2[nH]1 [TR-FTO-37]
IC50 [2, 7]: 3.3 µM | elogD [3]: 0.75

SMILES: FC(F)(F)Sc1ccc(CNCC2(N3CCCC3)COC2)cc1 [TR-FTO-40]
IC50 [2, 7]: 3 µM | elogD [3]: 1.29

SMILES: Cc1ccc2c(CNCC3(N4CCCC4)COC3)c[nH]c2c1 [TR-FTO-42]
IC50 [1, 8]: 3 µM | IC50 [2, 7]: 13.4 µM

SMILES: Fc1ccc2c(CNCC3(N4CCC(F)C4)COC3)c[nH]c2c1 (stereo not shown) [TR-FTO-44]
chromatographic logD [3]: 0.95

SMILES: Fc1ccc2[nH]cc(CNCC3(N4CCC(F)C4)COC3)c2c1 (stereo not shown) [TR-FTO-45]
IC50 [2, 7]: 30.5 µM | elogD [3]: 1.03

SMILES: FC1CCN(C2(CNCc3c[nH]c4ccccc34)COC2)C1 (stereo not shown) [TR-FTO-47]
IC50 [1, 8]: 2.1 µM | IC50 [2, 7]: > 40 µM

SMILES: CN(C)Cc1ccc(NCc2ccc(C(F)(F)F)cc2)nc1 [TR-YTH-20]
Ki ([4]; Ki values for YTH library against YTHDF2, read-out: Ki): 266 ± 92 pM | Ki ([4]; read-out: Ki (pM) YTHDF2): 266 ± 92 pM | Ki ([4]; read-out: Ki YTHDF2): 266 ± 92 pM

Results, then the molecule that gave them:

IC50 [1, 5]: > 40 µM | IC50 [2, 6]: 3.1 µM | elogD ([3]; Table 800 compounds): 1.60
SMILES: O=S(=O)(Nc1cccc(O)c1)c1ccc(OC(F)(F)F)cc1 [TR-ALKBH5-39]

IC50 [1, 5]: 59.4 µM | IC50 [2, 6]: 2.3 µM | elogD ([3]; Table 800 compounds): 2.05
SMILES: CN(CCCN1c2ccccc2CCc2ccccc21)S(=O)(=O)c1ccc(OC(F)(F)F)cc1 [TR-ALKBH5-40]

IC50 [1, 5]: 285 µM | IC50 [2, 6]: 0.25 µM | elogD ([3]; Table 800 compounds): 0.83
SMILES: C[C@@H](NS(=O)(=O)c1ccc(OC(F)(F)F)cc1)c1cccnc1 [TR-ALKBH5-42]

IC50 ([1]; read-out: Enzymatic IC50 FTO): 0.61 ± 0.17 µM
SMILES: COc1cc(NC(=O)C2CC(Oc3ccccc3)CN2C(=O)c2ccccc2OC)cc(OC)c1 (stereo not shown) [TR-FTO 2-01]

IC50 ([1]; read-out: Enzymatic IC50 FTO): 0.19 ± 0.03 µM
SMILES: COc1ccccc1C(=O)N1CC(Oc2ccccc2)CC1C(=O)Nc1ccc(C)c(C)c1 (stereo not shown) [TR-FTO 2-02]

IC50 ([1]; read-out: Enzymatic IC50 FTO): 1.24 ± 0.65 µM
SMILES: COc1ccc(CNC(=O)C2CC(Oc3ccccc3)CN2C(=O)c2ccccc2OC)cc1 (stereo not shown) [TR-FTO 2-03]

IC50 ([1]; read-out: Enzymatic IC50 FTO): 6.67 ± 2.31 µM
SMILES: COc1ccc(CNC(=O)C2CC(Oc3ccccc3)CN2C(=O)c2ccccc2OC)c(OC)c1 (stereo not shown) [TR-FTO 2-04]

IC50 ([1]; read-out: Enzymatic IC50 FTO): 8.31 ± 2.07 µM
SMILES: COc1ccccc1C(=O)N1CC(Oc2ccccc2)CC1C(=O)Nc1ccc(C(C)=O)cc1 (stereo not shown) [TR-FTO 2-05]

IC50 ([1]; read-out: Enzymatic IC50 FTO): 12.5 ± 2.7 µM
SMILES: COc1ccccc1C(=O)N1CC(Oc2ccccc2)CC1C(=O)NCc1ccccn1 (stereo not shown) [TR-FTO 2-06]

IC50 ([1]; read-out: Enzymatic IC50 FTO): 0.17 ± 0.03 µM
SMILES: COc1ccccc1C(=O)N1CC(Oc2ccccc2)CC1C(=O)NCc1cccnc1 (stereo not shown) [TR-FTO 2-07]

IC50 ([1]; read-out: Enzymatic IC50 FTO): 10.3 ± 2.29 µM
SMILES: COc1ccccc1C(=O)N1CC(Oc2ccccc2)CC1C(=O)Nc1ccccc1SC (stereo not shown) [TR-FTO 2-08]

IC50 ([1]; read-out: Enzymatic IC50 FTO): > 40 µM
SMILES: COc1ccccc1C(=O)N1CC(Oc2ccccc2)CC1C(=O)Nc1cccc(F)c1O (stereo not shown) [TR-FTO 2-09]

IC50 [2, 7]: 55 µM | elogD [3]: 1.14
SMILES: c1ccc(-c2ccc(CNCC3(N4CCCC4)COC3)o2)cc1 [TR-FTO-35]

IC50 [2, 7]: 3.4 µM | elogD [3]: 1.57
SMILES: c1ccc(-c2ccc(CNCC3(N4CCCC4)COC3)s2)cc1 [TR-FTO-38]
